Assay results from patent US20060009478A1, “Methods for the treatment of back pain” (priority 2003, published 2006).
Several values for one entry are separate records, joined by “and”; a condition that tells them apart may be missing. Equal entries are not always repeated.

Tests used:
[1] = tested on: patients with moderate to severe chronic pain due to osteoarthritis of the hip or knee; assay: Quality of analgesia, 3-week osteoarthritis study; type: in vivo, human
Procedure: Quality of Analgesia was assessed weekly at clinic visits. The patient was prompted with the question, “How would you rate the quality of your pain relief at this time?”, and responses were selected from poor, fair, good, very good, and excellent.
The global assessment, quality of analgesia, and pain control, recorded at the end of each week, were summarized in terms of category proportions.
For secondary analysis of data, pain intensity changes, SF-12, and WOMAC were analyzed with the ANOVA methods as described above. Within treatment arms, weeks were compared in pairwise fashion using paired-sample methods. The global assessments, quality of analgesia ratings, and pain control was analyzed at each week, globally and in pairwise fashion, using the Cocharan-Mantel-Haenszel row mean scores (CMH-RMS) test, using equally spaced scores. An “observed data” analysis, without any data imputation, was conducted on pain intensity changes, global assessments, quality of analgesia ratings, pain control, SF-12, and WOMAC using the same analysis methods described previously.

IL10 = assay: Plasma cytokine concentration, Pointilliste Human Th1/Th2 Cytokine Canvas; type: in vivo; conditions: OXY = oxycodone QID, BID/QID = combination drug of oxycodone and naltrexone BID/QID
Procedure: (§1) Plasma samples from selected subjects in the clinical study were used to assay for the presence and concentration of selected cytokines.
(§2) Plasma samples were analyzed using a commercial cytokine assay from Pointilliste (www.pointilliste.com) to quantify the concentrations of IL2, IL4, IL5, IL6, IL10, IL13, GM-CSF, interferon and TNFα. Plasma samples were separately analyzed for IL1αand IL1β, which were quantitated using a conventional cytokine assay by Pointilliste. The cytokine assay for the quantitation of IL2, IL4, IL5, IL6, IL10, IL13, GM-CSF, interferon and TNFα employed, Pointilliste's Human Th1/Th2 Cytokine Canvas product which contains binding sites for each of these nine cytokines.
(§3) Two measurements (duplicates) for each cytokine were possible for each plasma sample applied to a canvas, since the canvas has two binding sites for each cytokine.
(§4) Fifty-seven frozen human plasma samples containing EDTA as an anticoagulant were thawed on ice and transferred to a sterile 96-deep well polypropylene plate. The plate was centrifuged briefly at 4° C. to clarify the plasma. Aliquots of clarified plasma were removed for cytokine analysis, and the remaining samples in the 96-deep well polypropylene plate were stored at −80° C.
(§5) The aliquots of clarified plasma were transferred to sterile non-protein binding 96-well polypropylene plates to enable parallel processing of the samples. Two different 96 well plates were used, and each received a subsample of the aliquots at different dilutions. Two dilutions (1 in 1 and 1 in 10) of each sample were assayed on two separate human Th1/Th2 cytokine canvases. In order to quantify the cytokine concentrations, standard curves were generated for each dilution. A mixture of 9 cytokines was run on each of the canvases and used to calculate a standard curve, which was used to determine the amount of each cytokine in the samples. The standard curves were plotted with the signal intensity as a function of the cytokine concentration in ng/ml. A CCD camera was used with Pointilliste's Canvas Analysis Tools software to generate data corresponding to cytokine concentrations.

IL13 = assay: as above; type: in vivo; conditions: OXY = oxycodone QID, BID/QID = combination drug of oxycodone and naltrexone BID/QID
Procedure: as §1, §2, §3, §4, §5

IL2 = assay: as above; type: in vivo; conditions: OXY = oxycodone QID, BID/QID = combination drug of oxycodone and naltrexone BID/QID
Procedure: as §1, §2, §3, §4, §5

IL4 = assay: as above; type: in vivo; conditions: OXY = oxycodone QID, BID/QID = combination drug of oxycodone and naltrexone BID/QID
Procedure: as §1, §2, §3, §4, §5

IL6 = assay: as above; type: in vivo; conditions: OXY = oxycodone QID, BID/QID = combination drug of oxycodone and naltrexone BID/QID
Procedure: as §1, §2, §3, §4, §5

TNFα = assay: as above; type: in vivo; conditions: OXY = oxycodone QID, BID/QID = combination drug of oxycodone and naltrexone BID/QID
Procedure: as §1, §2, §3, §4, §5

interferon gamma = assay: as above; type: in vivo; conditions: OXY = oxycodone QID, BID/QID = combination drug of oxycodone and naltrexone BID/QID
Procedure: as §1, §2, §3, §4, §5

[2] = ITT (N = 102 per active group), LOCF
[3] = individual measurements of plasma samples, listed as OXY
[4] = treatment group mean, random sample of subjects

COc1ccc2c3c1O[C@H]1C(=O)CC[C@@]4(O)[C@@H](C2)N(C)CC[C@]314 [OXY QID, oxycodone]
Quality of analgesia Week 1: EXCELLENT (4), number (%) of patients [1, 2]: 3 (2.9%) | Quality of analgesia Week 1: FAIR (1), number (%) of patients [1, 2]: 31 (30.4%) | Quality of analgesia Week 1: GOOD (2), number (%) of patients [1, 2]: 18 (37.3%) | Quality of analgesia Week 1: POOR (0), number (%) of patients [1, 2]: 18 (17.6%) | Quality of analgesia Week 1: VERY GOOD (3), number (%) of patients [1, 2]: 8 (7.8%) | Quality of analgesia Week 2: EXCELLENT (4), number (%) of patients [1, 2]: 4 (3.9%) | Quality of analgesia Week 2: FAIR (1), number (%) of patients [1, 2]: 29 (28.4%) | Quality of analgesia Week 2: GOOD (2), number (%) of patients [1, 2]: 30 (29.4%) | Quality of analgesia Week 2: POOR (0), number (%) of patients [1, 2]: 19 (18.6%) | Quality of analgesia Week 2: VERY GOOD (3), number (%) of patients [1, 2]: 16 (15.7%) | Quality of analgesia Week 3: EXCELLENT (4), number (%) of patients [1, 2]: 5 (4.9%) | Quality of analgesia Week 3: FAIR (1), number (%) of patients [1, 2]: 23 (22.5%) | Quality of analgesia Week 3: GOOD (2), number (%) of patients [1, 2]: 32 (31.4%) | Quality of analgesia Week 3: POOR (0), number (%) of patients [1, 2]: 23 (22.5%) | Quality of analgesia Week 3: VERY GOOD (3), number (%) of patients [1, 2]: 15 (14.7%) | Patients reporting a quality of analgesia assessment of very good or excellent at Week 3 ([1]; Week 3): 19.6% | IL10 cytokine concentration (IL10; [3]): 0.07237 ng/mL and 0.2164 ng/mL and 0.2235 ng/mL and 0.2438 ng/mL and 0.2959 ng/mL and 0.3757 ng/mL and 0.9598 ng/mL and 1.236 ng/mL and 1.26 ng/mL and 1.394 ng/mL | Mean of IL10 concentrations (IL10; [4]): 0.628 ng/mL | IL13 cytokine concentration (IL13; [3]): 2.362 ng/mL and 3.291 ng/mL and 3.392 ng/mL and 0.06466 ng/mL and 0.073 ng/mL and 0.1092 ng/mL and 0.1415 ng/mL and 0.1418 ng/mL and 0.1451 ng/mL and 0.1509 ng/mL and 0.169 ng/mL and 0.2847 ng/mL and 0.3385 ng/mL and 0.37 ng/mL and 0.6256 ng/mL and 0.941 ng/mL and 1.09 ng/mL and 2.079 ng/mL | Mean of IL13 concentrations (IL13; [4]): 0.876 ng/mL | IL2 cytokine concentration (IL2; [3]): 0.1202 ng/mL and 0.1501 ng/mL and 0.1613 ng/mL and 0.1672 ng/mL and 0.208 ng/mL and 0.2689 ng/mL and 0.3259 ng/mL and 0.4012 ng/mL and 0.4755 ng/mL and 0.5532 ng/mL and 0.7233 ng/mL and 1.583 ng/mL and 1.817 ng/mL and 0.092 ng/mL | Mean of IL2 concentrations (IL2; [4]): 0.503 ng/mL | IL4 cytokine concentration (IL4; [3]): 0.0907 ng/mL and 0.09132 ng/mL and 0.1379 ng/mL and 0.1411 ng/mL and 0.2369 ng/mL and 0.2651 ng/mL and 0.4655 ng/mL and 0.4725 ng/mL | Mean of IL4 concentrations (IL4; [4]): 0.238 ng/mL | IL6 cytokine concentration (IL6; [3]): 0.04453 ng/mL and 0.0579 ng/mL and 0.06949 ng/mL and 0.0733 ng/mL and 0.07724 ng/mL and 0.0774 ng/mL and 0.1107 ng/mL and 0.1115 ng/mL and 0.1391 ng/mL and 0.1469 ng/mL and 0.3354 ng/mL and 0.3599 ng/mL and 0.5957 ng/mL and 0.604 ng/mL | Mean of IL6 concentrations (IL6; [4]): 0.2 ng/mL | TNF cytokine concentration (TNFα; [3]): 0.05312 ng/mL and 0.05316 ng/mL and 0.05332 ng/mL and 0.06095 ng/mL and 0.1469 ng/mL and 0.2 ng/mL and 0.5152 ng/mL and 0.5153 ng/mL | Mean of TNF concentrations (TNFα; [4]): 0.2 ng/mL | IFN cytokine concentration (interferon gamma; [3]): 0.07226 ng/mL and 0.07442 ng/mL and 0.2197 ng/mL and 0.2407 ng/mL | Mean of IFN concentrations (interferon gamma; [4]): 0.152 ng/mL
